pIC50: −log10 of the molar value.
Key:
Dog MTP = target: T1, Dog MTP (Canis lupus familiaris, UniProt A0A8I3S8Z7); assay: MTP assay (triglyceride transfer from donor to acceptor vesicles); type: biochemical; details: drug concentration that corresponds with 50% of control values
T1 sequence (A0A8I3S8Z7 18-893): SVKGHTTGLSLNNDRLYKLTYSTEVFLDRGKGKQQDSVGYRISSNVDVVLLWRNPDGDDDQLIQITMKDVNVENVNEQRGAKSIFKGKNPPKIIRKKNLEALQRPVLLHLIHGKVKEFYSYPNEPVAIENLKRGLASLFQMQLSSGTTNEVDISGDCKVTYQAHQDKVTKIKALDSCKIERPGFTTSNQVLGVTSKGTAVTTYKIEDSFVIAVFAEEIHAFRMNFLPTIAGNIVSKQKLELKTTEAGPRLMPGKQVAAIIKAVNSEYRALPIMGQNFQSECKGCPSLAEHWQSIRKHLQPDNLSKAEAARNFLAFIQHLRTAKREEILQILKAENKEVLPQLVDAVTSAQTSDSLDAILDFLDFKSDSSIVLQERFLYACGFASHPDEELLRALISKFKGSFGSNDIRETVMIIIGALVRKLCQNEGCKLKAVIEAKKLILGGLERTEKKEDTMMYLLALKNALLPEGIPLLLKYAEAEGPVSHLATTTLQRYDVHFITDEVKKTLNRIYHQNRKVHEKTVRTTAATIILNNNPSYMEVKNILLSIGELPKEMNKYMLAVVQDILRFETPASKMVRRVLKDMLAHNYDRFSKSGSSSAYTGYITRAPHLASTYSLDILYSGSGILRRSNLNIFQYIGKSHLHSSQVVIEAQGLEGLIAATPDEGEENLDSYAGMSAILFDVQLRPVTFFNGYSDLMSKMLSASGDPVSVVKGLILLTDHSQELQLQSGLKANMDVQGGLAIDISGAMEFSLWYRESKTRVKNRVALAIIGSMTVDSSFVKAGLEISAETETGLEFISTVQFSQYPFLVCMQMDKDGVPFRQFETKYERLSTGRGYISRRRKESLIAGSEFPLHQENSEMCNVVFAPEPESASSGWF
Procedure: MTP activity was measured using an assay similar to one described by J. R. Wetterau and D. B. Zilversmit in Chemistry and Physics of Lipids, 38, 205-222 (1985). To prepare the donor and acceptor vesicles, the appropriate lipids in chloroform were put into a glass test tube and dried under a stream of N2. A buffer containing 15 mM Tris-HCl pH 7.5, 1 mM EDTA, 40 mM NaCl, 0.02% NaN3 (assay buffer) was added to the dried lipid. The mixture was vortexed briefly and the lipids were then allowed to hydrate for 20 min on ice. Vesicles were then prepared by bath sonication (Branson 2200) at room temperature for maximum 15 min. Butylated hydroxytoluene was included in all vesicle preparations at a concentration of 0.1%. The lipid transfer assay mixture contained donor vesicles (40 nmol phosphatidylcholine, 7.5 mol % of cardiolipin and 0.25 mol % glycerol tri [1-^14C]-oleate), acceptor vesicles (240 nmol phosphatidylcholine) and 5 mg BSA in a total volume of 675 μl in a 1.5 ml microcentrifuge tube. Test compounds were added dissolved in DMSO (0.13% final concentration). After 5 minutes of pre-incubation at 37° C., the reaction was started by the addition of MTP in 100 μl dialysis buffer. The reaction was stopped by the addition of 400 μl DEAE-52 cellulose pre-equilibrated in 15 mM Tris-HCI pH 7.5, 1 mM EDTA, 0.02% NaN3 (1:1, vol/vol). The mixture was agitated for 4 min and centrifuged for 2 min at maximum speed in an Eppendorf centrifuge (4° C.) to pellet the DEAE-52-bound donor vesicles. An aliquot of the supernatant containing the acceptor liposomes was counted and the [^14C]-counts were used to calculate the percent triglyceride transfer from donor to acceptor vesicles. Resulting IC50 values are enumerated in Table C.1.

HepG2 cells = assay: Quantification of the secretion of ApoB in HepG2 cells; type: cell-based; details: 24 hours of incubation, calculated by non-linear regression analysis
Procedure: HepG2 cells were cultured in 24-well plates in MEM Rega 3 containing 10% fetal calf serum. At 70% confluency, the medium was changed and the test compound or carrier (DMSO, 0.4% final concentration) was added. After 24 hours of incubation, the medium was transferred to Eppendorf tubes and cleared by centrifugation. A sheep antibody directed against either apoB was added to the supernatant and the mixture was kept at 8° C. for 24 hours. Then, rabbit anti-sheep antibody was added and the immune complex was allowed to precipitate for 24 hours at 8° C. The immunoprecipitate was pelleted by centrifugation for 25 min at 1320 g and washed twice with a buffer containing 40 mM Mops, 40 mM NaH2PO4, 100 mM NaF, 0.2 mM DTT, 5 mM EDTA, 5 mM EGTA, 1% Triton-X-100, 0.5% sodium deoxycholate (DOC), 0.1% SDS, 0.2 μM leupeptin and 0.2 μM PMSF. Radioactivity in the pellet was quantified by liquid scintillation counting. Resulting IC50 values are enumerated in Table C. 1.

[1] = Plasma levels in a clinical trial on human volunteers; type: in vivo; details: for share of the total AUC, compounds 1, 2 and 3 together: one value for the three compounds combined
From the text: Plasma levels of compounds 1, 2 and 3 and of compound A have been measured in a clinical trial on human volunteers.

[2] = human volunteers, single 200 mg dose administration of compound A

Structure (SMILES): CCC(C)n1ncn(-c2ccc(N3CCN(c4ccc(OC[C@@H]5CO[C@@](CS(=O)(=O)c6nncn6C)(c6ccc(Cl)cc6)O5)cc4)CC3)cc2)c1=O (relative stereo) [Compound 1, [2S-[2α,4α(S*)]]-4-[4-[4-[4-[[2-(4-chloropheny)-2-[[(4-methyl-4H-1,2,4-triazol-3-yl)sulfonyl]methyl]-1,3-dioxlan-4-yl]methoxy]phenyl]-1-piperazinyl]phenyl]-2,4-dihydro-2-(1-methylpropyl)-3H-1,2,4-triazol-3-one]
- pIC50 (Dog MTP): 8.21
- pIC50 (HepG2 cells; Homo sapiens, HepG2, 24 h): 7.21
- clearance compared with compound A ([1]; human volunteers): slower than clearance of compound A
- share of the total AUC, compounds 1, 2 and 3 together [1, 2]: 92%

Structure (SMILES): CCC(C)n1ncn(-c2ccc(N3CCN(c4ccc(OCC5COC(C[S+]([O-])c6nncn6C)(c6ccc(Cl)cc6)O5)cc4)CC3)cc2)c1=O (single isomer, unassigned) [Compound 2]
- pIC50 (Dog MTP): 6.93
- pIC50 (HepG2 cells): 6.03
- clearance compared with compound A ([1]; human volunteers): slower than clearance of compound A
- share of the total AUC, compounds 1, 2 and 3 together [1, 2]: 92%

Structure (SMILES): CCC(C)n1ncn(-c2ccc(N3CCN(c4ccc(OCC5COC(C[S+]([O-])c6nncn6C)(c6ccc(Cl)cc6)O5)cc4)CC3)cc2)c1=O (single isomer, unassigned) [Compound 3, [2S-[2α(B),4α(S*)]]-4-[4-[4-[4-[[2-(4-chlorophenyl)-2-[[(4-methyl-4H-1,2,4-traizol-3yl]sulfinyl]methyl]-1,3-dioxolan-4-yl]methoxy]phenyl]-1-piperazinyl]Phenyl-2,4-dihydro-2-(1-methylpropyl)-3H-1,2,4-traizol-3-one]
- pIC50 (Dog MTP): 7.96
- pIC50 (HepG2 cells): 7.03
- clearance compared with compound A ([1]; human volunteers): slower than clearance of compound A
- share of the total AUC, compounds 1, 2 and 3 together [1, 2]: 92%

Structure (SMILES): CC[C@@H](C)n1ncn(-c2ccc(N3CCN(c4ccc(OC[C@@H]5CO[C@@](CSc6nncn6C)(c6ccc(Cl)cc6)O5)cc4)CC3)cc2)c1=O [compound A, (−)-[2S-[2α,4α(S*)]]-4-[4-[4-[4-[[-2-(4-chlorophenyl)-2-[[(4-methyl-4H-1,2,4-triazol-3-yl)thio]methyl]-1,3-dioxolan-4-yl]methoxy]phenyl]-1-piperazinyl]phenyl]-2,4-dihydro-2-(1-methylpropyl)-3H-1,2,4-triazol-3-one, reference compound]
- pIC50 (Dog MTP): 8.12
- pIC50 (HepG2 cells; Homo sapiens, HepG2, 24 h): 7.60
- share of the total AUC (Area Under the Curve) [1, 2]: 8%
- metabolisation on passing the liver (first-pass) ([1]; human, in vivo): extensive metabolisation

— patent publication US6451802B1, “S-oxide lipid lowering compounds” (Janssen Pharmaceutica N.V., priority 1998, dated 2002)
